Experimental data as given in patent publication US20190112316A1, “THIAZOLO[3,2-A] PYRIMIDINONE AND OTHER HETEROBICYCLIC PYRIMIDINONE COMPOUNDS FOR USE IN MEDICAL THERAPY” (priority 2015, published 2019).
Converted amounts (≈) assume the structure as drawn.

Columns and labels:
[1] = target: T1, glucocerebrosidase (Gcase) (Homo sapiens, UniProt P04062); experiment: Glucocerebrosidase (Gcase) activation assay, 4-methylumbelliferyl-beta-D-glucopyranoside substrate, with saposin C; assay type: biochemical; details: for activation at 0.1 µM: read-out: Percent Gcase Activation 0.1 μM Test Compound; for activation at 1 µM: read-out: Percent Gcase Activation 1 μM Test Compound
T1 construct: micellar solution containing 10 nM GCase and 100 nM saposin C (Enzo ALX-201-262-C050)
T1 sequence (P04062 40-536): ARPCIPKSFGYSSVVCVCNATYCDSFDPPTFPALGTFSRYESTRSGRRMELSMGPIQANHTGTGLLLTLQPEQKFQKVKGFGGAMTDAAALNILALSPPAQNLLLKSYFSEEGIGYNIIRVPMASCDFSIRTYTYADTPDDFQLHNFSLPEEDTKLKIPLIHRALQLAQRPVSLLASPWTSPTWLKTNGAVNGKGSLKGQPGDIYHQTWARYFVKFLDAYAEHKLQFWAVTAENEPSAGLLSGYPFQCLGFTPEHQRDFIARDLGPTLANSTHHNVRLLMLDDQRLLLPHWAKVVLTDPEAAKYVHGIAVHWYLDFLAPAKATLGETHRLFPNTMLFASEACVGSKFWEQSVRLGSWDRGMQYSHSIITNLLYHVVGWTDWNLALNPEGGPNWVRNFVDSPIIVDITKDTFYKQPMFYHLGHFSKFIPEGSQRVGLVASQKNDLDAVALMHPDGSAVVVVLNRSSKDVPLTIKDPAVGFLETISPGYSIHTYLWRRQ
Experimental: A 484 μL aliquot of a 1.0 mg/mL solution of phosphatidylserine (PS) (Sigma P7769) in chloroform was evaporated under a stream of nitrogen for 1 hour. The lipid film was dissolved over 4 minutes of vigorous vortexing in 40 mL of 176 mM K2HPO4/50 mM citric acid (pH 4.7) containing 7.5 μL of triton X-100, resulting in a mixed micellar preparation with a composition of 0.32 mM triton and 0.37 mol % PS. 4-Methylumbelliferyl-beta-D-glucopyranoside (ACROS-337025000) was dissolved in the micellar solution to a final concentration of 2 mM for use as the reaction substrate.
Test compounds were diluted to the desired concentrations with dimethylsulfoxide (DMSO) from 10 mM stocks, and 0.41 μL of the DMSO compound mixture was added to 100 μL of micellar solution containing 10 nM GCase and 100 nM saposin C (Enzo ALX-201-262-C050). Pre-incubation was allowed to occur for 30 minutes at room temperature, after which the reaction was initiated by combining 25 μL of substrate solution with 25 μL of compound/GCase/saposin mixture. The reaction proceeded for 15 minutes at room temperature and was stopped by adding 150 μL of 1M glycine, pH 12.5. The endpoint of the reaction was monitored by measuring fluorescence intensity (excitation: 365 nm; emission: 440 nm) on a SpectraMax i3 instrument (Molecular Devices). Test compounds were screened at 1.0 and 0.1 μM final concentration, and subsequent 8-point dose response curves were obtained using 3-fold dilutions from a maximum final concentration of 5 μM.

[2] = Compound solubility in water; assay type: physicochemical

Structure (SMILES)	activation at 0.1 µM [1] [%]	activation at 1 µM [1] [%]	solubility [2] [mg/mL]
C[C@@H](NC(=O)c1cnc2n(c1=O)CCS2)c1ccccc1	< 5	< 5	0.0368 (≈ 122 µM)
C#Cc1ccc(NC(=O)c2cnc3sccn3c2=O)cc1	5 to 20	> 20	0.0034 (≈ 11.5 µM)
C#Cc1ccc(NC(=O)c2cnc3cccc(C)n3c2=O)cc1	< 5	5 to 20	0.0015 (≈ 4.95 µM)
O=C(NC1CCCCC12CCCCO2)c1cnc2n(c1=O)CCS2 (stereo not drawn)	< 5	< 5	0.0372 (≈ 106 µM)
